In patent US12384800B2, “Antitumoral compounds” (priority 2017, dated 2025):

Legend:
Assay in all cases: cells
[1] = test system: HT29 cells (colorectal adenocarcinoma); conditions: HT29, SRB; for TGI: total cell growth inhibition; for TGI / CC50: 72 hours; for CC50: read-out: LC50, 50% net cell killing; for GI50: 72 hours treatment
Source text: (§1) The aim of this assay is to evaluate the in vitro cytostatic (ability to delay or arrest tumor cell growth) or cytotoxic (ability to kill tumor cells) activity of the samples being tested.
(§2) A colorimetric assay, using sulforhodamine B (SRB) reaction has been adapted to provide a quantitative measurement of cell growth and viability (following the technique described by Skehan et al. J. Natl. Cancer Inst. 1990, 82, 1107-1112). Another colorimetric assay based on 3-(4,5-Dimethylthiazol-2-yl)-2,5-diphenyltetrazolium bromide (MTT) reduction to a purple formazan has been also used to assess the antiproliferative activity (following the technique described by Mosmann et al. J. Immunol. Meth. 1983, 65, 55-63).
(§3) These forms of assays employ 96-well cell culture microplates following the standards of the American National Standards Institute and the Society for Laboratory Automation and Screening (ANSI SLAS 1-2004 (R2012) Oct. 12, 2011. All the cell lines used in this study were obtained from the American Type Culture Collection (ATCC) and derive from different types of human cancer.
(§4) A549, HT29, MDA-MB-231 and PSN1 cells were maintained in Dulbecco's Modified Eagle Medium (DMEM) while PC-3 and 22Rv1 cells were maintained in Roswell Park Memorial Institute Medium (RPMI). All cell lines were supplemented with 10% Fetal Bovine Serum (FBS), 2 mM L-glutamine, 100 U/mL penicillin, and 100 […] at 37° C., 5% CO2 and 98% humidity. For the experiments, cells were harvested from subconfluent cultures using trypsinization and resuspended in fresh medium before counting and plating.
(§5) A549, HT29, MDA-MB-231 and PSN1 cells were seeded in 96 well microtiter plates, at 5000 cells per well in aliquots of 150 μL, and allowed to attach to the plate surface for 18 hours (overnight) in drug free medium. After that, one control (untreated) plate of each cell line was fixed (as described below) and used for time zero reference value. Culture plates were then treated with test compounds (50 μL aliquots of 4× stock solutions in complete culture medium plus 4% DMSO) using ten ⅖ serial dilutions (concentrations ranging from 10 to 0.003 μg/mL) and triplicate cultures (1% final concentration in DMSO). After 72 hours treatment, the antitumor effect was measured by using the SRB methodology: Briefly, cells were washed twice with PBS, fixed for 15 min in 1% glutaraldehyde solution at room temperature, rinsed twice in PBS, and stained in 0.4% SRB solution for 30 min at room temperature. Cells were then rinsed several times with 1% acetic acid solution and air-dried at room temperature.
(§6) Effects on cell growth and survival were estimated by applying the NCI algorithm (Boyd M R and Paull K D. Drug Dev. Res. 1995, 34, 91-104). The values obtained in triplicate cultures were fitted by nonlinear regression to a four-parameters logistic curve by nonlinear regression analysis.

[2] = test system: PSN1 cells (pancreas adenocarcinoma); conditions: PSN1, SRB; for GI50: 72 hours treatment; for TGI: total cell growth inhibition; for TGI / CC50: 72 hours; for CC50: read-out: LC50, 50% net cell killing
Source text: as §1, §2, §3, §4, §5, §6

[3] = test system: MDA-MB-231 cells (breast adenocarcinoma); conditions: for TGI: total cell growth inhibition; for TGI / CC50: 72 hours; for CC50: read-out: LC50, 50% net cell killing
Source text: as §1, §2, §3, §4, §5, §6

[4] = test system: A549 cells (lung carcinoma, NSCLC); conditions: A549, SRB; for GI50: 72 hours treatment; for TGI: total cell growth inhibition; for TGI / CC50: 72 hours; for CC50: read-out: LC50, 50% net cell killing
Source text: as §1, §2, §3, §4, §5, §6

[5] = MDA-MB-231, 72 hours treatment, SRB

Row | SMILES | TGI [1] [Molar] | CC50 [1] [nM] | GI50 [2] [nM] | TGI [2] [Molar] | CC50 [2] [nM] | GI50 [3, 5] [nM] | TGI ([3]; MDA-MB-231, SRB) [Molar] | CC50 ([3]; MDA-MB-231, SRB) [nM] | GI50 [4] [nM] | TGI [4] [Molar] | CC50 [4] [nM] | GI50 [1] [nM] | GI50 ([3]; Homo sapiens, MDA-MB-231, 72 h) [nM]
1 | COc1c(C)cc2c(c1O)[C@@H]1[C@@H]3[C@@H]4SC[C@]5(N[C@H](C)Cc6c5[nH]c5ccccc65)C(=O)OC[C@@H](c5c6c(c(C)c(OC(C)=O)c54)OCO6)N3[C@@H](C#N)[C@H](C2)N1C [A, reference compound] | 8.36E−09 | > 129 | 12.9 | 1.54E−08 | 19.3 | 7.07 | 9.38E−09 | 14.1 | 8.36 | 8.87E−09 | > 129 | – | –
2 | COc1c(C)cc2c(c1O)[C@@H]1[C@@H]3[C@@H]4SC[C@]5(N[C@@H](C)Cc6c5[nH]c5ccccc65)C(=O)OC[C@@H](c5c6c(c(C)c(OC(C)=O)c54)OCO6)N3[C@@H](C#N)[C@H](C2)N1C [B, reference compound] | 9.13E−09 | > 129 | 19.3 | 2.06E−08 | 23.1 | 9 | 1.67E−08 | 34.7 | 20.6 | 2.19E−08 | > 129 | 8.48 | –
3 | COc1c(C)cc2c(c1O)[C@@H]1[C@@H]3[C@@H]4SC[C@]5(N[C@@H](CO)Cc6c5[nH]c5ccccc65)C(=O)OC[C@@H](c5c6c(c(C)c(OC(C)=O)c54)OCO6)N3[C@@H](C#N)[C@H](C2)N1C [Compound 3-R] | >1.26E−07 | > 126 | 0.39 | 6.05E−10 | > 126 | – | 5.04E−10 | 1.25 | 403 | 5.79E−10 | > 126 | – | –
4 | COc1c(C)cc2c(c1O)[C@@H]1[C@@H]3[C@@H]4SC[C@]5(N[C@H](COC(C)=O)Cc6c5[nH]c5ccccc65)C(=O)OC[C@@H](c5c6c(c(C)c(OC(C)=O)c54)OCO6)N3[C@@H](C#N)[C@H](C2)N1C [Compound 3a-S] | 3.23E−09 | > 120 | 2.15 | 3.59E−09 | 12 | 2.87 | 3.59E−09 | 4.9 | 3.11 | 3.23E−09 | > 120 | 2.99 | –
5 | C=CCOC(=O)NC[C@H]1Cc2c([nH]c3ccccc23)[C@@]2(CS[C@@H]3c4c(OC(C)=O)c(C)c5c(c4[C@H](COC2=O)N2[C@@H]3[C@H]3c4c(cc(C)c(OC)c4O)C[C@@H]([C@@H]2C#N)N3C)OCO5)N1 [Compound 10-R] | >1.14E−07 | > 114 | – | – | – | – | – | – | – | – | – | – | –
6 | COc1c(C)cc2c(c1O)[C@@H]1[C@@H]3[C@@H]4SC[C@]5(N[C@@H](CN)Cc6c5[nH]c5ccccc65)C(=O)OC[C@@H](c5c6c(c(C)c(OC(C)=O)c54)OCO6)N3[C@@H](C#N)[C@H](C2)N1C [Compound 11-R] | >1.26E−07 | > 126 | 1.39 | 1.89E−09 | > 126 | – | – | – | 1.77 | 4.54E−09 | > 126 | 1.39 | –
7 | COc1c(C)cc2c(c1O)[C@@H]1[C@@H]3[C@@H]4SC[C@]5(N[C@H](CN)Cc6c5[nH]c5ccccc65)C(=O)OC[C@@H](c5c6c(c(C)c(OC(C)=O)c54)OCO6)N3[C@@H](C#N)[C@H](C2)N1C [Compound 11-S] | >1.26E−07 | > 126 | – | – | – | – | – | – | – | – | > 126 | – | –
8 | COc1c(C)cc2c(c1O)[C@@H]1[C@@H]3[C@@H]4SC[C@]5(N[C@H](C(=O)O)Cc6c5[nH]c5ccccc65)C(=O)OC[C@@H](c5c6c(c(C)c(OC(C)=O)c54)OCO6)N3[C@@H](C#N)[C@H](C2)N1C [Compound 14-S, reference compound] | >1.24E−07 | > 124 | > 124 | >1.24E−07 | > 124 | 54.5 | 1.13E−07 | > 124 | > 124 | >1.24E−07 | > 124 | 121 | –
9 | COc1ccc2[nH]c3c(c2c1)C[C@H](CO)N[C@]31CS[C@@H]2c3c(OC(C)=O)c(C)c4c(c3[C@H](COC1=O)N1[C@@H]2[C@H]2c3c(cc(C)c(OC)c3O)C[C@@H]([C@@H]1C#N)N2C)OCO4 [Compound 18-R] | 1.34E−09 | – | 0.57 | 1.06E−09 | – | – | 1.34E−09 | 1.46 | – | 1.34E−09 | – | – | –
10 | COc1ccc2[nH]c3c(c2c1)C[C@@H](CO)N[C@]31CS[C@@H]2c3c(OC(C)=O)c(C)c4c(c3[C@H](COC1=O)N1[C@@H]2[C@H]2c3c(cc(C)c(OC)c3O)C[C@@H]([C@@H]1C#N)N2C)OCO4 [Compound 18-S] | 1.34E−09 | – | 0.959 | 1.34E−09 | – | – | 1.34E−09 | 1.58 | 1.7 | 3.03E−09 | – | – | –
11 | C=CCOC(=O)NC[C@H]1Cc2c([nH]c3ccc(OC)cc23)[C@@]2(CS[C@@H]3c4c(OC(C)=O)c(C)c5c(c4[C@H](COC2=O)N2[C@@H]3[C@H]3c4c(cc(C)c(OC)c4O)C[C@@H]([C@@H]2C#N)N3C)OCO5)N1 [Compound 25-R] | 2.76E−09 | > 110 | – | 2.32E−09 | 6.73 | – | 2.54E−09 | 8.38 | 1.32 | 2.43E−09 | 9.92 | 1.54 | –
12 | C=CCOC(=O)NC[C@@H]1Cc2c([nH]c3ccc(OC)cc23)[C@@]2(CS[C@@H]3c4c(OC(C)=O)c(C)c5c(c4[C@H](COC2=O)N2[C@@H]3[C@H]3c4c(cc(C)c(OC)c4O)C[C@@H]([C@@H]2C#N)N3C)OCO5)N1 [Compound 25-S] | 7.72E−09 | > 110 | 6.84 | 9.26E−09 | 14.3 | 5.84 | 9.04E−09 | 15.4 | 7.17 | 7.61E−09 | > 110 | 7.17 | –
13 | COc1ccc2[nH]c3c(c2c1)C[C@H](CN)N[C@]31CS[C@@H]2c3c(OC(C)=O)c(C)c4c(c3[C@H](COC1=O)N1[C@@H]2[C@H]2c3c(cc(C)c(OC)c3O)C[C@@H]([C@@H]1C#N)N2C)OCO4 [Compound 26-R] | 1.58E−09 | > 122 | 0.972 | 1.70E−09 | 3.52 | 1.17 | 1.22E−09 | 1.46 | 1.94 | 3.40E−09 | > 122 | 0.729 | –
14 | COc1ccc2[nH]c3c(c2c1)C[C@@H](CN)N[C@]31CS[C@@H]2c3c(OC(C)=O)c(C)c4c(c3[C@H](COC1=O)N1[C@@H]2[C@H]2c3c(cc(C)c(OC)c3O)C[C@@H]([C@@H]1C#N)N2C)OCO4 [Compound 26-S] | 3.16E−09 | > 122 | 3.04 | 3.28E−09 | 3.52 | 1.34 | 1.94E−09 | 3.89 | 11.2 | 2.19E−08 | > 122 | 2.79 | –
15 | C=CCOC(=O)NC[C@@H]1Cc2c(oc3ccccc23)[C@@]2(CS[C@@H]3c4c(OC(C)=O)c(C)c5c(c4[C@H](COC2=O)N2[C@@H]3[C@H]3c4c(cc(C)c(OC)c4O)C[C@@H]([C@@H]2C#N)N3C)OCO5)N1 [Compound 45-S] | – | – | – | – | – | – | – | – | – | – | – | – | 11.7
